Data taken from US11576979B2, “Pyrrolobenzodiazepine prodrugs and antibody conjugates thereof” (GENENTECH, INC., priority 2016, dated 2023).

Assays:
WSU Cell line = assay: Cell viability, DTD-activated quinone prodrugs (Example 15); assay type: cell-based; settings: read-out: IC50 Potency (nM)
Procedure: (§1) The toxicity of PBD dimer diaphorase prodrug 1, PBD monomer diaphorase prodrug 2, PBD dimer control 1 and PBD monomer control 1 were evaluated against KPL-4 and WSU cell lines for cell viability. The KPL-4 cell line is was a high DTD cell line characterized by NQO1 nRPKM of 839 and the WSU cell line was a low DTD cell line characterized by a NQO1 nRPKM of 1.36. The IC50 ratios are based on the prodrug IC50 value relative to the PBD dimer control.

KPL-4 Cell line = assay: as above; assay type: cell-based; settings: KPL4, read-out: IC50 Potency (nM)
Procedure: as §1

BJAB = assay: Standard cell panel (Table 7B); assay type: cell-based; settings: Homo sapiens
Text: (§2) PBD dimer control 1 and PBD dimer control 2 were further evaluated in standard cell panels against a number of cell lines.

MES-SA = assay: Standard cell panel (Table 7B); assay type: cell-based; settings: Homo sapiens
Text: as §2

MES-SA/Dx5 = assay: Standard cell panel (Table 7B); assay type: cell-based; settings: Homo sapiens
Text: as §2

KPL-4 = assay: Standard cell panel (Table 7B); assay type: cell-based; settings: KPL4
Text: as §2

SW 900 = assay: Standard cell panel (Table 7B); assay type: cell-based; settings: Homo sapiens, SW900
Text: as §2

NCI-H1781 = assay: Standard cell panel (Table 7B); assay type: cell-based
Text: as §2

HCC1569 X2 = assay: Standard cell panel (Table 7B); assay type: cell-based; settings: Homo sapiens
Text: as §2

T-47D = assay: Standard cell panel (Table 7B); assay type: cell-based; settings: Homo sapiens, T47D
Text: as §2

HCC1937 = assay: Standard cell panel (Table 7B); assay type: cell-based; settings: Homo sapiens
Text: as §2

[1] = system: double strand DNA Oligos 1 and 2; assay: DNA oligo binding, LC/MS/UV; settings: 100 uM compound, 100 uM DNA, 1 hour, 37 C
Procedure: For DNA binding determination, the compounds were incubated at 100 μM with 100 μM double strand DNA Oligos 1 and 2 for 1 hour in 10 mM Bis-Tris, pH 7.1 at 37° C. The single strand DNA Oligos (5′-TATAGAATCTATA-3′ and 3′-ATATCTTAGATAT-5′) were synthesized at Genentech. The samples were analyzed by LC/MS/UV (210-450 nm) on Sciex TripleTOF 5600 on a Hypersil Gold C18 column (100×2.1, 1.9 Thermo Scientific). The column was eluted at 0.4 mL/min by a gradient of buffer A (50 mM hexafluoro-isopropanol and 15 mM diisopropylethylamine) to buffer B (50% A and 50% of 1:1 methanol:acetonitrile), 5% 0-0.5 min, 5-25% B 0.5-25 min, 25-95% B 25-40 min, and to 95% B 40-42 min. The % remaining was an average of the starting DNA oligos remaining in incubations (n=2). The products were characterized by LC/MS in a negative ESI ion mode.

Igrov-1 = assay: CellTiter-Glo toxicity, 4 days (Example 9); assay type: cell-based; settings: Homo sapiens, IGROV-1, 96 h, 4 days of drug incubation; Table 7A
Method in brief: (§3)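 Cells were seeded in 384-well plates, dosed 24 h later and incubated with drug for 4 days. Viability was read as ATP luminescence by CellTiter-Glo and normalised to untreated controls. IC50 is the concentration giving 50% of maximum cell killing.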

UACC-257 = assay: CellTiter-Glo toxicity, 4 days (Example 9); assay type: cell-based; settings: Homo sapiens, UACC-257, 96 h, 4 days of drug incubation; Table 7A
Method in brief: as §3

SK-BR-3 = assay: CellTiter-Glo toxicity, 3 days (Example 7); assay type: cell-based; settings: Homo sapiens, SK-BR-3, 72 h, read-out: SK-BR-3 IC50 (nM)
Procedure: The toxicity of PBD monomer disulfide prodrugs 1 to 4, PBD dimer disulfide prodrugs 1 and 4, PBD monomer control 1 and PBD dimer control 1 were evaluated against SK-BR-3 cell cultures. […] The HER2-positive breast cancer cell line, SK-BR-3, was obtained internally at Genentech after having been verified by sequence analysis. The cells were grown at 37 Celsius in DMEM+10% FBS supplemented with 2 mM L-glutamine for the duration of this assay. On the first day of the experiment, designated “Day −1”, SK-BR-3 cells were harvested from tissue culture flasks, counted, and then seeded into 96-well plates at a concentration of 7,500 cells per well. The next day, designated “Day 0”, cell culture media was removed from the cells and replaced with 100 uL of fresh media containing a serial dilution (1:3) of the compounds in Table 5 below. The plates were then returned to the 37 Celsius incubator and allowed to incubate for 3 days. On “Day 3” of the assay, the plates were removed from the incubator and allowed to equilibrate to room temperature before adding 100 uL of room-temperature CellTiter-Glo reagent (Promega). The plates were then agitated at 300 rpm for 10 minutes. The luminescence signal generated from this reaction was recorded on an Envision plate reader (Perkin-Elmer). The data were arranged in Excel (Microsoft) and graphed in Kaleidagraph (Synergy Software).

HL-60 = assay: Standard cell panel (Table 7B); assay type: cell-based; settings: Homo sapiens
Text: as §2

MDA-MB-231 = assay: Standard cell panel (Table 7B); assay type: cell-based; settings: Homo sapiens
Text: as §2

DLD-1 = assay: Standard cell panel (Table 7B); assay type: cell-based; settings: Homo sapiens
Text: as §2

HCT 116 = assay: Standard cell panel (Table 7B); assay type: cell-based; settings: Homo sapiens
Text: as §2

BJAB/Pgp = assay: Standard cell panel (Table 7B); assay type: cell-based; settings: Homo sapiens
Text: as §2

A2058 = assay: Standard cell panel (Table 7B); assay type: cell-based; settings: Homo sapiens
Text: as §2

C=C1C[C@H]2C=Nc3cc(OCCCCCOc4cc5c(cc4OC)C(=O)N4CC(=C)C[C@H]4C=N5)c(OC)cc3C(=O)N2C1 [PBD dimer control 1]
IC50 (WSU Cell line): 0.2 nM
IC50 (KPL-4 Cell line): 2.09 nM
IC50 (BJAB): 0.015 nM
IC50 (MES-SA): 0.028 nM
IC50 (MES-SA/Dx5): 0.56 nM
IC50 (KPL-4): 0.053 nM
IC50 (SW 900): 0.078 nM
IC50 (NCI-H1781): 0.011 nM
IC50 (HCC1569 X2): 0.097 nM
IC50 (T-47D): 0.032 nM
IC50 (HCC1937): 0.15 nM
% DNA oligo remaining [1]: <1%
IC50 (Igrov-1): 0.061 nM
IC50 (UACC-257): 0.95 nM
IC50 (SK-BR-3): 0.144 nM

C=C1C[C@H]2CNc3cc(OCCCCCOc4cc5c(cc4OC)C(=O)N4CC(=C)C[C@H]4CN5)c(OC)cc3C(=O)N2C1 [PBD dimer control 2]
IC50 (BJAB): 4.9 nM
IC50 (MES-SA): 10 nM
IC50 (HL-60): 2.4 nM
IC50 (MES-SA/Dx5): > 100 nM
IC50 (KPL-4): 67.4 nM
IC50 (MDA-MB-231): 73.2 nM
IC50 (DLD-1): > 100 nM
IC50 (HCT 116): 15 nM
IC50 (BJAB/Pgp): 53.7 nM
IC50 (A2058): 5.3 nM
% DNA oligo remaining [1]: 100%
